According to PMC6175062, “Gaining Mechanistic Insight Into Coproporphyrin I as Endogenous Biomarker for OATP1B‐Mediated Drug–Drug Interactions Using Population Pharmacokinetic Modeling and Simulation” (Clinical Pharmacology and Therapeutics, 2018):
Where two headings read alike, the source gives them in different places.

Columns and labels:
OATP1B = experiment: Model-based rifampicin in vivo OATP Ki using CPI as probe; design: species or system human; settings: for Ki: human, plasma, oral, 600 mg, probe CPI (endogenous biomarker)
Protocol: The plasma concentrations of the endogenous biomarker CPI were described using a turnover model (Equation 3).36 Simultaneous fitting of individual CPI plasma and urine data in the presence and absence of RIF was performed. In the final model, RIF inhibited biliary elimination (CL b,CPI) of CPI, whereas its renal clearance (CL R,CPI) and k syn were not affected. The rate of change of CPI plasma concentration under baseline and RIF condition is shown in Equations 3 and 4, respectively, whereas change in CPI amount in urine over time is shown in Equation 5. (3) dCCPI/dt=[ksyn−CLb,CPI⋅CCPI−CLR,CPI⋅CCPI]⋅1/VCPI (4) dCCPI/dt=[ksyn−CLb,CPI⋅CCPI/1+CRIF/KiCPI−CLR,CPI⋅CCPI]⋅1/VCPI (5) dUCPI/dt=CLR,CPI⋅CCPI where C CPI is its plasma concentration, U CPI is the CPI amount in urine, t is time, k syn is the zero‐order synthesis rate, Ki CPI is RIF transporter inhibition constant using CPI as a probe, V CPI is the volume of distribution of CPI and C RIF is RIF plasma concentration (linked to RIF model). Simulations were also performed to assess the consequences of the hypothetical inhibition of both CPI synthesis (k syn and biliary elimination (CL b,CPI) by inhibitor of interest (details in Supplementary Material).

[1] = system: OATP-mediated rosuvastatin uptake in human hepatocytes; experiment: Rifampicin inhibition of rosuvastatin uptake in plated human hepatocytes; format: cell-based; settings: RSV 2 µM; no pre-incubation effect, same donor
Protocol: The in vitro IC50 for rifampicin was assessed using CPI and RSV as OATP probe substrates in plated human hepatocytes. Cryopreserved human hepatocytes (Donor QQE, BioreclamationIVT, Baltimore, MD) were thawed and plated at a density of 350,000 cells (1). After culturing for 4h, hepatocytes were washed twice with Dulbecco's phosphate-buffered saline and pre-incubated for an hour with either buffer or rifampicin (0.01-100µM). Following pre-incubation, the medium was replaced with CPI (0.30µM) or RSV (2µM) containing rifampicin (0-100µM). Incubations were stopped after 3 or 5 minutes (for RSV and CPI,respectively) using the washing protocol described previously (2). Monolayers were lysed with water and frozen overnight and then prepared for protein quantification (BCA assay) and LC-MS/MS analysis.
Lysate concentrations were used to demine uptake rates over a series of free RIF concentrations measured in the medium and plotted as a % of the control to estimate RIF IC50 (Main article Figure 5A and Figure S1). RIF IC50 was determined using equation 1, where U denotes the uptake rate (% vs control) at the free inhibitor concentration in the incubation [I] (µM); R, the range of inhibition; B, the un-inhibitable background (%), and S, the slope factor (GraFit v6).

OATP1B1 = settings: cited from earlier work
OATP1B3 = system: OATP1B3; design: method as in earlier work; settings: ref (3, 4), cited from earlier work
MRP2 = system: MRP2; design: method as in PMID 28325716; settings: read-out: IC50, inhibition of MRP2 transport of CPI; cited from earlier work
OATP2B1 = system: OATP2B1; design: method as in PMID 24617605, PMID 20102298; settings: inconsistent data; read-out: IC50, OATP2B1 inhibition; cited from earlier work
OATP [2] = settings: inhibitor 600 mg, rosuvastatin 5 mg; ref (20); cited from earlier work
OATP [3] = target: OATP; design: method as in PMID 27170342; settings: cited from earlier work

CO[C@H]1/C=C/O[C@@]2(C)Oc3c(C)c(O)c4c(O)c(c(/C=N/N5CCN(C)CC5)c(O)c4c3C2=O)NC(=O)/C(C)=C\C=C\[C@H](C)[C@H](O)[C@@H](C)[C@@H](O)[C@@H](C)[C@H](OC(C)=O)[C@@H]1C [rifampicin]
difference between unbound in vivo Ki from CPI and from RSV (OATP1B; CPI-based Ki lower): 2 fold
Ki (OATP1B; corrected for rifampicin fu plasma 0.11, read-out: in vivo unbound OATP Ki using CPI data): 0.13 µM
Ki (OATP1B; total (not corrected for fu), CPI as probe, read-out: KiCPI, total Ki estimated by the model, population estimate (SE%)): 1.15 µM
IC50 [1]: 1 µM
IC50 (OATP1B1; substrate Atorvastatin 1 µM, HEK, rifampicin 0.1-630 µM, ref (11)): 2.2 µM
IC50 (OATP1B1; substrate BSP 0.01 µM, HEK, rifampicin 0.01-100 µM, ref (7)): 2.75 µM
IC50 (OATP1B1; substrate Coproporphyrin I 0.1 µM, CHO, rifampicin 0.1-100 µM, ref (3)): 3.25 µM
IC50 (OATP1B1; substrate Coproporphyrin I 0.2 µM, HEK, rifampicin 0.1-100 µM, ref (4)): 0.66 µM
IC50 (OATP1B1; substrate Coproporphyrin III 0.1 µM, CHO, rifampicin 0.1-100 µM, ref (3)): 4.61 µM
IC50 (OATP1B1; substrate Coproporphyrin III 0.2 µM, HEK, rifampicin 0.1-100 µM, ref (4)): 0.79 µM
IC50 (OATP1B1; substrate Fexofenadine 1 µM, HEK, rifampicin 0.01-100 µM, ref (10)): 0.423 µM
IC50 (OATP1B1; substrate GCDCA-S 1 µM, HEK, rifampicin 0.1-30 µM, ref (5)): 0.39 µM
IC50 (OATP1B1; substrate Nateglinide 1 µM, HEK, rifampicin 0.01-100 µM, ref (10)): 0.358 µM
IC50 (OATP1B1; substrate Pitavastatin 0.1 µM, HEK, rifampicin 0.01-100 µM, ref (10)): 1.07 µM
IC50 (OATP1B1; substrate Pitavastatin 0.1 µM, MDCKII, rifampicin 0.1-100 µM, ref (8)): 1.6 µM
IC50 (OATP1B1; substrate Pravastatin 10 µM, HEK, rifampicin 0.01-100 µM, ref (10)): 0.653 µM
IC50 (OATP1B1; substrate Rosuvastatin 0.1 µM, HEK, ref (9)): 1.1 µM
IC50 (OATP1B1; substrate Rosuvastatin 0.1 µM, MDCKII, rifampicin 0.1-100 µM, ref (8)): 1.1 µM
IC50 (OATP1B1; substrate Rosuvastatin 1 µM, HEK, rifampicin 0.01-100 µM, ref (10)): 0.952 µM
IC50 (OATP1B1; substrate Valsartan 1 µM, HEK, rifampicin 0.01-100 µM, ref (10)): 0.377 µM
IC50 (OATP1B1; substrate [3H]-E1S 0.01 µM, HEK, rifampicin 0.01-100 µM, ref (7)): 6.96 µM
IC50 (OATP1B1; substrate [3H]-E2G 0.1 µM, HEK, rifampicin 0.01-100 µM, ref (7)): 0.585 µM
IC50 (OATP1B3; read-out: IC50, OATP1B3 transfected cells, CPI as substrate): 0.25 to 1.61 µM
IC50 (OATP1B3; read-out: IC50, OATP1B3 transfected cells, CPIII as substrate): 0.27 to 1.41 µM
IC50 (MRP2): 83 µM
IC50 (OATP2B1): 2.1 to 81 µM
Fold Change in AUC of rosuvastatin (OATP [2]): 4.7 fold
Ki (OATP [3]; read-out: in vivo Ki estimated from pitavastatin clinical data): 0.23 µM
Ki (OATP [3]; read-out: in vivo Ki estimated from pravastatin clinical data): 0.19 µM
